In paper PMC11721617, “Novel isobavachalcone derivatives induce apoptosis and necroptosis in human non-small cell lung cancer H1975 cells” (Journal of Enzyme Inhibition and Medicinal Chemistry, 2023):
Like-named read-outs stand apart in the source and are kept apart here.

Tests used:
[1] = test system: PC9; assay: MTT assay, cytotoxic activity; format: cell-based; conditions: Homo sapiens, PC-9, PC9 cells, 72 h
Method: (§1) Four cell lines (H1975, A549, PC9, and Aml-12) were cultured in RPMI 1640 medium containing 10% foetal bovine serum (FBS) and 1% penicillin/streptomycin in an atmosphere with 5% CO2 and 95% relative humidity at 37 °C.
(§2) Cell viability was examined using the MTT assay. The cells grown in the logarithmic phase were seeded in 96-well plates at a density of 5 × 10^3 per well. The cells were treated with various concentrations (0, 5, 10, 20, 40, and 80 μM) of the compound at different times, respectively. At the end of time point, MTT solution (5 mg/ml) was added to each well and incubated at 37 °C for 4 h. Next, the media was removed, and formazan was dissolved in DMSO. Finally, absorbance was measured with a microplate spectrophotometer at 490 nm (Synergy HT, BioTek, VT, USA).

[2] = test system: A549; assay: MTT assay, cytotoxic activity; format: cell-based, human; conditions: Homo sapiens; A549 cells, 72 h, MTT
Method: as §1, §2

[3] = test system: H1975; assay: MTT assay, cytotoxic activity / cell viability; format: cell-based, human; conditions: Homo sapiens, NCI-H1975
Method: as §1, §2

[4] = MTT assay, cytotoxic activity on normal hepatocytes; format: cell-based, mouse; conditions: Aml-12 cells (normal hepatocytes); normal mouse hepatocytes Aml-12 cells, 72 h
Method: as §1, §2

[5] = H1975 cells, 72 h, MTT, read-out: Cytotoxic activity IC50, H1975

**Q.** Which IC50 [1] does the source give for `CC(C)=CCc1c(O)c(C(=O)/C=C/c2ccc(O)cc2)cc(C(c2ccc(C(F)(F)F)cc2)N2CCOCC2)c1O` (stereo not drawn) [Compound 17, (E)-1-(2,4-Dihydroxy-3-(3-methylbut-2-en-1-yl)-5-(morpholino(4-(trifluoromethyl)phenyl)methyl)phenyl)-3-(4-hydroxyphenyl)prop-2-en-1-one] here?
**A.** The IC50 was 20.6 µM.

**Q.** What about the IC50 [2] of the same compound?
**A.** The IC50 was 30.1 µM.

**Q.** What about the IC50 [3, 5] of the same compound?
**A.** The IC50 was 7.01 µM.

**Q.** What does the source list for `CC(C)=CCc1c(O)c(C(=O)/C=C/c2ccc(O)cc2)cc(C(c2ccc(Cl)cc2)N2CCOCC2)c1O` (stereo not drawn) [Compound 11, (E)-1-(5-((4-Chlorophenyl)(morpholino)methyl)-2,4-dihydroxy-3-(3-methylbut-2-en-1-yl)phenyl)-3-(4-hydroxyphenyl)prop-2-en-1-one]?
**A.** IC50 [1]: 19.7 µM; IC50 [2]: 21.8 µM; IC50 [3, 5]: 11.4 µM

**Q.** Which results are given for `COc1ccc(/C=C/C(=O)c2ccc(O)c(CC=C(C)C)c2O)cc1` [Compound 1, (E)-1-(2,4-Dihydroxy-3-(3-methylbut-2-en-1-yl)phenyl)-3-(4-methoxyphenyl)prop-2-en-1-one]?
**A.** IC50 [1]: 14.3 µM; IC50 [2]: 41.6 µM; IC50 [3, 5]: 38 µM

**Q.** What does the source list for `CC(C)=CCc1c(O)c(C(=O)/C=C/c2ccc(O)cc2)cc(C(c2ccccc2)N2CCOCC2)c1O` (stereo not drawn) [Compound 9, (E)-1-(2,4-Dihydroxy-3-(3-methylbut-2-en-1-yl)-5-(morpholino(phenyl)methyl)phenyl)-3-(4-hydroxyphenyl)prop-2-en-1-one]?
**A.** IC50 [1]: 22.8 µM; IC50 [2]: 26.9 µM; IC50 [3, 5]: 12.1 µM

**Q.** What does the source list for `CC(=O)O[C@H]1C(=O)[C@@]2(C)[C@H]([C@H](OC(=O)c3ccccc3)[C@]3(O)C[C@H](OC(=O)[C@H](O)[C@@H](NC(=O)c4ccccc4)c4ccccc4)C(C)=C1C3(C)C)[C@]1(OC(C)=O)CO[C@@H]1C[C@@H]2O` [Paclitaxel, reference compound]?
**A.** IC50 [1]: 0.06 µM; IC50 at 72 h [4]: 2.51 ± 0.13 µM; IC50 [2]: 1.61 µM; IC50 [3, 5]: 0.01 µM

**Q.** What does the source list for `CC(C)=CCc1c(O)c(C(=O)/C=C/c2ccc(O)cc2)cc(C(c2ccncc2)N2CCOCC2)c1O` (stereo not drawn) [Compound 8, (E)-1-(2,4-Dihydroxy-3-(3-methylbut-2-en-1-yl)-5-(morpholino(pyridin-4-yl)methyl)phenyl)-3-(4-hydroxyphenyl)prop-2-en-1-one]?
**A.** IC50 [1]: 29.9 µM; IC50 [2]: 39.2 µM; IC50 [3, 5]: 13.8 µM

**Q.** Which IC50 [1] does the source give for `CC(C)=CCc1c(O)c(C(=O)/C=C/c2ccc(O)cc2)cc(C(c2ccc(F)cc2)N2CCOCC2)c1O` (stereo not drawn) [Compound 12, (E)-1-(5-((4-Fluorophenyl)(morpholino)methyl)-2,4-dihydroxy-3-(3-methylbut-2-en-1-yl)phenyl)-3-(4-hydroxyphenyl)prop-2-en-1-one] here?
**A.** The IC50 was 20.7 µM.

**Q.** What about the IC50 [2] of the same compound?
**A.** The IC50 was 33 µM.

**Q.** And the IC50 [3, 5]?
**A.** Its IC50 is 12.1 µM.

**Q.** Which IC50 [1] does the source give for `CC(C)=CCc1c(OCc2ccccc2)ccc(C(=O)/C=C/c2ccc(OCc3ccccc3)cc2)c1O` [Compound 4, (E)-1-(4-(Benzyloxy)-2-hydroxy-3-(3-methylbut-2-en-1-yl)phenyl)-3-(4-(benzyl-oxy)phenyl)prop-2-en-1-one] here?
**A.** The IC50 was over 50 µM.

**Q.** What about the IC50 [2] of the same compound?
**A.** The IC50 was over 50 µM.

**Q.** And the IC50 [3, 5]?
**A.** Its IC50 is over 50 µM.

**Q.** Which IC50 [1] does the source give for `CC(C)=CCc1c(O)c(C(=O)/C=C/c2ccc(O)cc2)cc(C(c2ccc(C(=O)O)cc2)N2CCOCC2)c1O` (stereo not drawn) [Compound 14, (E)-4-((2,4-Dihydroxy-5-(3-(4-hydroxyphenyl)acryloyl)-3-(3-methylbut-2-en-1-yl)phenyl)(morpholino)methyl)benzoic acid] here?
**A.** Its IC50 is over 50 µM.

**Q.** What about the IC50 [2] of the same compound?
**A.** Its IC50 is over 50 µM.

**Q.** And the IC50 [3, 5]?
**A.** The IC50 was 23.6 µM.

**Q.** With `CC(C)=CCc1c(O)ccc(C(=O)/C=C/c2ccc(OCc3ccccc3)cc2)c1O` [Compound 5, (E)-3-(4-(Benzyloxy)phenyl)-1-(2,4-dihydroxy-3-(3-methylbut-2-en-1-yl)phenyl)prop-2-en-1-one] as the compound, how does the IC50 [1] read?
**A.** Its IC50 is 24.9 µM.

**Q.** And the IC50 [2]?
**A.** The IC50 was 33.1 µM.

**Q.** What about the IC50 [3, 5] of the same compound?
**A.** Its IC50 is 13.6 µM.

**Q.** What does the source list for `CC(C)=CCc1c(O)ccc(C(=O)/C=C/c2ccc(O)cc2)c1O` [IBC, isobavachalcone]?
**A.** IC50 [1]: 9.22 µM; IC50 at 72 h [4]: 17.7 ± 1.2 µM; IC50 [2]: 21.7 µM; IC50 [3, 5]: 17.9 µM

**Q.** For `CC(C)=CCc1c(O)c(C=O)cc(C(=O)/C=C/c2ccc(O)cc2)c1O` [Compound 6, (E)-2,4-Dihydroxy-5-(3-(4-hydroxyphenyl)acryloyl)-3-(3-methylbut-2-en-1-yl)benzylaldehyde], which IC50 [1] is on record?
**A.** The IC50 was 18.4 µM.

**Q.** What about the IC50 [2] of the same compound?
**A.** The IC50 was 24.1 µM.

**Q.** And the IC50 [3, 5]?
**A.** Its IC50 is 5.79 µM.

**Q.** For `CC(C)=CCc1c(O)c(/C=N/NC(=N)N)cc(C(=O)/C=C/c2ccc(O)cc2)c1O` [Compound 7, 2-((E)-2,4-Dihydroxy-5-((E)-3-(4-hydroxyphenyl)acryloyl)-3-(3-methylbut-2-en-1-yl)benzylidene)hydrazine-1-carboximidamide], which IC50 [1] is on record?
**A.** The IC50 was 8.3 µM.

**Q.** What about the IC50 [2] of the same compound?
**A.** The IC50 was 15 µM.

**Q.** And the IC50 [3, 5]?
**A.** Its IC50 is 7.33 µM.

**Q.** What about the IC50 ([3]; read-out: IC50 values against H1975 and A549 cell lines (range over both)) of the same compound?
**A.** The IC50 was 4.35 to 15 µM.

**Q.** For `COc1ccc(C(c2cc(C(=O)/C=C/c3ccc(O)cc3)c(O)c(CC=C(C)C)c2O)N2CCOCC2)cc1` (stereo not drawn) [Compound 15, (E)-1-(2,4-Dihydroxy-5-((4-methoxyphenyl)(morpholino)methyl)-3-(3-methylbut-2-en-1-yl)phenyl)-3-(4-hydroxyphenyl)prop-2-en-1-one], which IC50 [1] is on record?
**A.** The IC50 was 23.2 µM.

**Q.** And the IC50 [2]?
**A.** Its IC50 is 28.9 µM.

**Q.** And the IC50 [3, 5]?
**A.** The IC50 was 11.7 µM.

**Q.** Which IC50 [1] does the source give for `CC(C)=CCc1c(O)c(C(=O)/C=C/c2ccc(O)cc2)cc(C(c2ccc(Br)cc2)N2CCOCC2)c1O` (stereo not drawn) [Compound 10, (E)-1-(5-((4-Bromophenyl)(morpholino)methyl)-2,4-dihydroxy-3-(3-methylbut-2-en-1-yl)phenyl)-3-(4-hydroxyphenyl)prop-2-en-1-one] here?
**A.** Its IC50 is 18.6 µM.

**Q.** And the IC50 [2]?
**A.** The IC50 was 34.8 µM.

**Q.** And the IC50 [3, 5]?
**A.** The IC50 was 6.76 µM.

**Q.** For `COc1ccc(C(=O)/C=C/c2ccc(O)cc2)c(O)c1CC=C(C)C` [Compound 2, (E)-1-(2-Hydroxy-4-methoxy-3-(3-methylbut-2-en-1-yl)phenyl)-3-(4-hydroxyphenyl) prop-2-en-1-one], which IC50 [1] is on record?
**A.** Its IC50 is 35.3 µM.

**Q.** And the IC50 [2]?
**A.** The IC50 was over 50 µM.

**Q.** What about the IC50 [3, 5] of the same compound?
**A.** The IC50 was 40.5 µM.

**Q.** For `CC(C)=CCc1c(O)c(C(=O)/C=C/c2ccc(O)cc2)cc(C(c2ccc([N+](=O)[O-])cc2)N2CCOCC2)c1O` (stereo not drawn) [Compound 13, (E)-1-(2,4-Dihydroxy-3-(3-methylbut-2-en-1-yl)-5-(morpholino(4-nitrophenyl)methyl)phenyl)-3-(4-hydroxyphenyl)prop-2-en-1-one], which IC50 [1] is on record?
**A.** Its IC50 is 23.5 µM.

**Q.** What about the IC50 [2] of the same compound?
**A.** The IC50 was 44.5 µM.

**Q.** What about the IC50 [3, 5] of the same compound?
**A.** Its IC50 is 7.39 µM.

**Q.** For `COc1ccc(/C=C/C(=O)c2ccc(OC)c(CC=C(C)C)c2O)cc1` [Compound 3, (E)-1-(2-Hydroxy-4-methoxy-3-(3-methylbut-2-en-1-yl)phenyl)-3-(4-methoxyphenyl) prop-2-en-1-one], which IC50 [1] is on record?
**A.** The IC50 was over 50 µM.

**Q.** And the IC50 [2]?
**A.** Its IC50 is over 50 µM.

**Q.** What about the IC50 [3, 5] of the same compound?
**A.** Its IC50 is over 50 µM.
